Assay results reported in US20220017495A1, “CONJUGATES OF BIVALENT EVANS BLUE DYE DERIVATIVES AND METHODS OF USE” (THE UNITED STATES OF AMERICA, AS REPRESENTED BY THE …, priority 2019, published 2022).
Where a name gives a salt, the structure may show the parent alone.

How the values were obtained:
[1] = system: blood glucose; assay: Blood glucose monitoring in T2DM mice; type: in vivo, db/db mice
[2] = Optical properties: absorption, emission, quantum yield and quantum efficiency; type: physicochemical; set-up: ϵ600nm / ϵpeak: unit not given here; conditions: for QE: QE=ε*QY; for Molar ϵ600nm / Molar ϵpeak: in M-1cm-1 (unit assumed); for QY600nm: relative, NtEB set as 1; for Extinction coefficient: as given in text (peak, BSA); for Absorption peak / Emission peak: in BSA
Description: The absorption and the emission spectra of N(tEB)2, NtEB and EB were measured in PBS, BSA and FBS buffers. […] The similar emission peaks of the three EB derivatives in BSA were recorded at 661, 652 and 660 nm, respectively.
Fluorescence brightness of each compound was further compared with equal molar amount of N(tEB)2, NtEB, or EB in the presence or absence of human serum albumin.
Quantum efficiency is a dye metric encompassing both the quantum yield and absorption coefficient (QE=ε*QY).

[3] = molecular target: T1, human serum albumin (HSA) (Homo sapiens, UniProt P02768); assay: Atomic force microscopy of complexes with HSA; set-up: purchased Abeam Inc., Cambridge, Mass; (so in the source); conditions: molar ratio 1:10, 1:1 and 10:1 with HSA
Description: We performed atomic force microscopy (AFM) to study the morphological structures of the complex. […] Samples ([…]) were cast on freshly peeled mica substrate, followed by drying, rinsing, and dehumidifying. AFM was carried out in tapping mode in air on a PicoForce Multimode AFM (Bruker, CA) equipped with a NANOSCOPE V controller, a type E scanner head, and a sharpened TESP-SS (Bruker, CA) AFM cantilever. An inverted optical microscope (IX71, Olympus, Japan) was used to capture pictures. AFM images were then analyzed by NANOSCOPE Software (version 7.3-8.15, Bruker, CA). For quantification, 10 different fields of view in one image were selected to quantify the “dimer” and the “monomer”. The size and morphology of dimer and monomer was defined by ImageJ (NIH, MD), a public domain Java image processing program.

[4] = molecular target: T1, human serum albumin (HSA); assay: Biolayer interferometry (BLI) binding to biotinylated HSA
Description: In this study, we used the streptavidin conjugated biosensors (Pall Fort6Bio LLC, CA). We preincubated the biosensors with biotinylated HSA (Abeam Inc., Cambridge, Mass.) for 10 minutes. After removing the unbound biotinylated HSA, the biosensors were washed for 1 minute. After blocking the spare biosensor, we added EZ-Link™ Sulfo-NHS-Biotin (Thermo Fisher Scientific, Rockford, Ill.) to each well and then removed it and washed the wells.
Association of a given dilution of a compound with the albumin-derivatized biosensor was measured for 600 seconds and then in turn, dissociation of the compound from the albumin measured for another 600 seconds. Data was analyzed using the OCTET Data Analysis software 7.0.

[5] = system: U-87MG, UM-22B and INS-1 tumor mouse xenografts; assay: PET tumor uptake and ex vivo biodistribution in tumor xenografts; set-up: species or system nude mice; conditions: for Tumor retention compared with IgG: U-87MG xenografts
Description: For each scan, regions of interest (ROIs) were drawn using vendor software (ASI Pro 5.2.4.0; Siemens Medical Solutions) on decay-corrected whole-body coronal images. […] These values were then divided by the administered activity to obtain (assuming a tissue density of 1 g/mL) an image-ROI-derived percentage injected dose per gram (% ID/g).
PET images were reconstructed without correction for attenuation or scattering using a three-dimensional ordered subsets expectation maximization algorithm.

T1 sequence (P02768 25-609): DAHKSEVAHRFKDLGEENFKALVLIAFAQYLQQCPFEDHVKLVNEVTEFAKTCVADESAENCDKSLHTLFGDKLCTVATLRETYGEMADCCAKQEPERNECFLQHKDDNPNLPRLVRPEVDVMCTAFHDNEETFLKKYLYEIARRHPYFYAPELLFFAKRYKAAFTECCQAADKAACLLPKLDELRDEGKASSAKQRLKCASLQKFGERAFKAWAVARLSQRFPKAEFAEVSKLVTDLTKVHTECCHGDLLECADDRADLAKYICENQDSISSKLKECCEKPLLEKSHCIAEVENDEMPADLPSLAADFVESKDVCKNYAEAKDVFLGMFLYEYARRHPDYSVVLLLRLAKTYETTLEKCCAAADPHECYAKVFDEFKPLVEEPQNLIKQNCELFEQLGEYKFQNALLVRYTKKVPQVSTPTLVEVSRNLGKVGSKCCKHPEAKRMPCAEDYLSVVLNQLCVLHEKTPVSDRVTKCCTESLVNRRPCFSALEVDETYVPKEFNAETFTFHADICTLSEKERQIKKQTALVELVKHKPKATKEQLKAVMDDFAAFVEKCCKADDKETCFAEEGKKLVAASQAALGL

Row | OD600nm ([2]; In BSA) | ODpeak ([2]; In BSA) | ϵ600nm ([2]; In BSA) | ϵpeak ([2]; In BSA) | Molar ϵ600nm ([2]; In BSA) | Molar ϵpeak ([2]; In BSA) | OD600nm ([2]; In FBS) | ODpeak ([2]; In FBS) | ϵ600nm ([2]; In FBS) | ϵpeak ([2]; In FBS) | Molar ϵ600nm ([2]; In FBS) | Molar ϵpeak ([2]; In FBS) | OD600nm ([2]; In PBS) | ODpeak ([2]; In PBS) | ϵ600nm ([2]; In PBS) | ϵpeak ([2]; In PBS) | Molar ϵ600nm ([2]; In PBS) | Molar ϵpeak ([2]; In PBS) | Absorption peak [2] [nm] | Emission peak [2] [nm] | Compound | also measured
1 | – | – | – | – | – | – | – | – | – | – | – | – | – | – | – | – | – | – | – | – | exendin-4: exendin-4 peptide, a glucagon-like peptide-1 (GLP-1) agonist | Reduction of glucose level ([1]; 1 h p.i., normalized to baseline plasma glucose): approximately 50%; Glucose level at recovery ([1]; at 12 h): 389.67 ± 44.3 mg/dL; Effective time window (from 50% reduction of glucose level to rebound to the original level) ([1]; single subcutaneous injection): 10.3 h; Glucose recovery time ([1]; single subcutaneous injection): 12 h
2 | 0.1245 | 0.183 | 27.79 | 40.85 | 37553.09 | 55198.51 | 0.1561 | 0.1931 | 34.84 | 43.10 | 47084.63 | 58244.99 | 0.0987 | 0.1806 | 22.03 | 40.31 | 29771.00 | 54474.60 | 610 | 661 | Cc1cc(-c2ccc(NC(=O)CN3CCN(CC(=O)O)CCN(CC(=O)Nc4ccc(-c5ccc(N=Nc6ccc7c(S(=O)(=O)O)cc(S(=O)(=O)O)c(N)c7c6O)c(C)c5)cc4C)CC3)c(C)c2)ccc1N=Nc1ccc2c(S(=O)(=O)O)cc(S(=O)(=O)O)c(N)c2c1O [N(tEB)2] | QE improvement over NtEB [2]: 5 fold; Quantum yield enhancement over NtEB [2]: 2 fold; QE ([2]; In BSA): 78929.01; QY600nm ([2]; In BSA): 2.10; QE ([2]; In FBS): 98962.49; QY600nm ([2]; In FBS): 2.10; Extinction coefficient [2]: 55198 M⁻¹ cm⁻¹; Dimerization of albumin (AFM) [3]: observed at all tested molar ratios; Kd times lower than EB complex with albumin [4]: 2 times; Kd times lower than NtEB complex with albumin [4]: 43 times; Kon value [4]: 47100 M⁻¹ s⁻¹; koff value [4]: 0.10 s⁻¹; Kd ([4]; pH 7.4): 1.8 µM; Koff ([4]; pH 7.4): 0.1009 s⁻¹; Kon ([4]; pH 7.4): 4.7128; Tumor retention compared with IgG ([5]; 24 h p.i.): comparable; Tumor retention compared with IgG ([5]; 48 h p.i.): significantly higher; Tumor uptake compared with NtEB ([5]; ^64Cu labeled, all tested tumor models, 24 and/or 48 h p.i.): significantly improved
3 | 0.0759 | 0.1108 | 18.98 | 27.70 | 15696.60 | 22914.15 | 0.0883 | 0.1132 | 22.08 | 28.30 | 18261.00 | 23410.48 | 0.0857 | 0.1533 | 21.43 | 38.33 | 17723.31 | 31703.42 | 550 | 652 | Cc1cc(-c2ccc(NC(=O)CN3CCN(CC(=O)O)CCN(CC(=O)O)CC3)c(C)c2)ccc1N=Nc1ccc2c(S(=O)(=O)O)cc(S(=O)(=O)O)c(N)c2c1O [NtEB] | QE ([2]; In BSA): 15696.60; QY600nm ([2]; In BSA): 1; QE ([2]; In FBS): 18261.00; QY600nm ([2]; In FBS): 1; Extinction coefficient [2]: 22914 M⁻¹ cm⁻¹; Dimerization of albumin (AFM) [3]: no apparent albumin dimers; Kd ([4]; pH 7.4): 79 µM; Koff ([4]; pH 7.4): 0.7947 s⁻¹; kon ([4]; pH 7.4): 13500 M⁻¹ s⁻¹
4 | 0.905 | 0.9551 | 88.14 | 93.02 | 84683.69 | 89371.71 | 0.8414 | 0.9057 | 81.94 | 88.21 | 78732.44 | 84749.19 | 0.9906 | 0.9983 | 96.47 | 97.22 | 92693.55 | 93414.07 | 548 | 660 | Cc1cc(-c2ccc(N=Nc3ccc4c(S(=O)(=O)O)cc(S(=O)(=O)O)c(N)c4c3O)c(C)c2)ccc1N=Nc1ccc2c(S(=O)(=O)O)cc(S(=O)(=O)O)c(N)c2c1O [EB, tetrasodium salt of 6,6′-{(3,3′-dimethyl[1,1′-biphenyl]-4,4′-diyl)bis[diazene-2,1-diyl]}bis(4-amino-5-hydroxynaphthalene-1,3-disulfonate)] | –
